Reference: patent EP2266622A2, “Prodrugs containing novel bio-cleavable linkers” (Piramal Life Sciences Limited, priority 2004, dated 2006)
Entries after “also recorded” stand apart in the source; their conditions may differ. Marks after values point to notes of the source that are not given here.

What was measured:
Assay type in all cases: in vivo
clonic seizures = test: Test 1: Subcutaneous Metrazol Seizure Threshold Test (scMET), mice i.p.; settings: for ScMET: class symbol = dose; for ScMET (number of animal protected/number of animal tested): 300 mg/kg (+)
Procedure: (§1) Most of the prodrugs and mutual prodrugs of anticonvulsants described in this invention were evaluated at National Institute of Neurological Disorders and Stroke (NINDS), National Institute of Health (NIH), under their Antiepileptic Screening Program (ASP).
(§2) Test 1 is an initial screening for anticonvulsant activity in the Maximal Electroshock Test (MES) and Subcutaneous Metrazol Seizure Threshold Test (scMET) models combined with an initial assessment of toxicity (TOX) in mice via i.p. injection (see further explanation below). The data for each condition is presented as N/F, where N = number of animals protected from seizure and F = number of animals tested. For test of toxicity, N = number of animals displaying toxic effects and F = number of animals tested. Any deaths occurring during the test were recorded.
Subcutaneous Metrazol Seizure Threshold Test (scMET): Subcutaneous injection of the convulsant metrazol produces clonic seizures in laboratory animals. […] Animals were pretreated with various doses of the test compound given by i.p. injection. At the previously determined Time to Peak Effect (TPE) of the test compound, the dose of metrazol which will produce convulsions in 97% of animals (CD97: 85 mg/kg in mice) was injected into a loose fold of skin in the midline of the neck. The animals were placed in isolation cages to minimize stress and observed for the next 30 minutes for the presence or absence of a seizure. An episode of clonic spasms, approximately […], of the fore and/or hind limbs, jaws, or vibrissae is taken as the end point.

[1] = test system: minimal muscular or neurological impairment; test: Test 1: Acute toxicity, minimal motor impairment (rotorod), mice i.p.; settings: for Rotorod Toxicity: class symbol = dose; for Rotorod Toxicity (number of animals exhibiting toxicity/number of animals tested): 300 mg/kg (+)
Procedure: as §1, §2

MES-induced seizures [2] = test: Test 1: Maximal Electroshock Test (MES), mice i.p.; settings: for MES: class symbol = dose
Procedure: as §1, §2
(§3) Maximal Electroshock Test (MES): The MES is a model for generalized tonic-clonic seizure and provides an indication of a compound's ability to prevent seizure spread when all neuronal circuits in the brain are maximally active. These seizures are highly reproducible and electro-physiologically consistent with human seizures. For all tests based on MES convulsions, 60 Hz of alternating current (50 mA in mice) is delivered for […] by corneal electrodes, which have been primed with an electrolyte solution containing an anesthetic agent (0.5% tetracaine hydrochloride). Mice were tested at various intervals following doses of 30, 100 and 300 mg/kg of test compound given by i.p. injection of a volume of 0.01 mL/g. Other doses can be used if indicated by previously known pharmacology. An animal is considered "protected" from MES-induced seizures upon abolition of the hind-limb tonic extensor component of the seizure.

MES-induced seizures [3] = test: Test 2: MES, rats p.o.
Source text: as §3
Rats received test compounds orally.

[4] = 100 mg/kg (++), 2 hours after dosing
[5] = at 2 hours after dosing (footnote h)

Row | Compound | ScMET (clonic seizures; 0.5 h) | ScMET (clonic seizures; 4.0 h) | toxicity (Test 1, in words) [1] | Rotorod Toxicity ([1]; 0.5 h) | Rotorod Toxicity ([1]; 4.0 h) | activity in MES (Test 1, in words) (MES-induced seizures [2]) | MES (number of animal protected/number of animal tested) (MES-induced seizures [2]; 300 mg/kg (+), 4.0 h) | MES (MES-induced seizures [2]; 0.5 h) | MES (MES-induced seizures [2]; 4.0 h) | Rotorod Toxicity (number of animals exhibiting toxicity/number of animals tested) ([1]; 0.5 h) | MES (number of animal protected/number of animal tested) (MES-induced seizures [2]; 100 mg/kg (++), 4.0 h) | MES (number of animal protected/number of animal tested) (MES-induced seizures [2]; 300 mg/kg (+), 0.5 h) | MES (number of animal protected/number of animal tested) (MES-induced seizures [3]; 30 mg/kg, 0.50 h) | MES (number of animal protected/number of animal tested) (MES-induced seizures [3]; 30 mg/kg, 1.00 h) | MES (number of animal protected/number of animal tested) (MES-induced seizures [3]; 30 mg/kg, 2.00 h) | MES (number of animal protected/number of animal tested) (MES-induced seizures [3]; 30 mg/kg, 4.00 h) | other results
1 | CCCC(CCC)C(=O)OCCSSCCOC(=O)Nc1nnc(-c2cccc(Cl)c2Cl)c(N)n1 [I-CA-MPD23] | - (- = no activity or no toxicity at 300 mg/kg) | - (- = no activity or no toxicity at 300 mg/kg) | no or mild toxicity | - (- = no activity or no toxicity at 300 mg/kg) | - (- = no activity or no toxicity at 300 mg/kg) | active in MES | 1/3 | - (- = no activity or no toxicity at 300 mg/kg) | + (+ = activity or toxicity at 300 mg/kg) |  |  |  |  |  |  |  | MES (number of animal protected/number of animal tested) (MES-induced seizures [2]; [4]): 1/3; MES (MES-induced seizures [2]; [5]): ++ (++ = activity or toxicity at 100 mg/kg); MES (number of animal protected/number of animal tested) (MES-induced seizures [3]; 150 mg/kg, 2.00 h): 4/4; MES (number of animal protected/number of animal tested) (MES-induced seizures [3]; 150 mg/kg, 4.00 h): 4/4; MES (number of animal protected/number of animal tested) (MES-induced seizures [3]; 150 mg/kg, 6.00 h): 4/4; MES (number of animal protected/number of animal tested) (MES-induced seizures [3]; 150 mg/kg, 8.00 h): 4/4
2 | CCOC(=O)CC1(CNC(=O)OCCSSCCOC(=O)NC(=O)[C@H](CC)N2CCCC2=O)CCCCC1 [I-AA-MPD13] | + (+ = activity or toxicity at 300 mg/kg) | - (- = no activity or no toxicity at 300 mg/kg) |  | + (+ = activity or toxicity at 300 mg/kg) | - (- = no activity or no toxicity at 300 mg/kg) |  |  | - (- = no activity or no toxicity at 300 mg/kg) | - (- = no activity or no toxicity at 300 mg/kg) | 4/4 |  |  |  |  |  |  | ScMET (number of animal protected/number of animal tested) (clonic seizures; 0.5 h): 1/1
3 | Cl.Nc1nc(NC(=O)OCCSSCCNC(=O)c2cccnc2)nnc1-c1cccc(Cl)c1Cl [I-CA-MPD25] | - (- = no activity or no toxicity at 300 mg/kg) | - (- = no activity or no toxicity at 300 mg/kg) | no or mild toxicity | - (- = no activity or no toxicity at 300 mg/kg) | - (- = no activity or no toxicity at 300 mg/kg) | active in MES | 1/1 | + (+ = activity or toxicity at 300 mg/kg) |  |  | 2/3 | (1/1) | 0/4 | 3/4 | 4/4 | 2/4 | 
4 | CS(=O)(=O)NC(=O)OCCSSCCOC(=O)Nc1nnc(-c2cccc(Cl)c2Cl)c(N)n1 [I-A1-PD15] | - (- = no activity or no toxicity at 300 mg/kg) | - (- = no activity or no toxicity at 300 mg/kg) | no or mild toxicity | - (- = no activity or no toxicity at 300 mg/kg) | - (- = no activity or no toxicity at 300 mg/kg) | active in MES | 1/1 | + (+ = activity or toxicity at 300 mg/kg) |  |  | 2/3 | (1/1) | 0/4 | 1/4 | 3/4 | 4/4 | 
5 | CCOC(=O)CC1(CNC(=O)OCCSSCCO[N+](=O)[O-])CCCCC1 [I-A1-NOPD1] |  | - (- = no activity or no toxicity at 300 mg/kg) |  |  | - (- = no activity or no toxicity at 300 mg/kg) |  |  | + (+ = activity or toxicity at 300 mg/kg) | - (- = no activity or no toxicity at 300 mg/kg) | 4/4 |  | 1/1 |  |  |  |  | ScMET (number of animal protected/number of animal tested) (clonic seizures; 0.5 h): 1/1; MES (number of animal protected/number of animal tested) (MES-induced seizures [2]; 100 mg/kg (++), 0.25 hours after dosing): (1/3)^k; MES (MES-induced seizures [2]; at 0.25 hours after dosing (footnote k)): ++ (++ = activity or toxicity at 100 mg/kg)
6 | Nc1nc(NC(=O)OCCSSCCOC(=O)c2cccnc2)nnc1-c1cccc(Cl)c1Cl [I-CA-MPD24] | - (- = no activity or no toxicity at 300 mg/kg) |  | non-toxic; also recorded: no or mild toxicity | - (- = no activity or no toxicity at 300 mg/kg) | - (- = no activity or no toxicity at 300 mg/kg) | active in both MES and scMET models |  | - (- = no activity or no toxicity at 300 mg/kg) | ++ (++ = activity or toxicity at 100 mg/kg) |  | 3/3 |  | 0/4 | 2/4 | 3/4 | 4/4 | activity in scMET (Test 1, in words) (clonic seizures): active in both MES and scMET models; ScMET (number of animal protected/number of animal tested) (clonic seizures; 4.0 h): (1/1)^l; MES (number of animal protected/number of animal tested) (MES-induced seizures [2]; [4]): 3/3; MES (number of animal protected/number of animal tested) (MES-induced seizures [2]; 100 mg/kg (++), 6 hours after dosing): (3/3)^m; MES (MES-induced seizures [2]; [5]): ++ (++ = activity or toxicity at 100 mg/kg); MES (MES-induced seizures [2]; at 6 hours after dosing (footnotes g, m)): ++ (++ = activity or toxicity at 100 mg/kg)
7 | CCOC(=O)CC1(CNC(=O)OCCSSCC(=O)OC)CCCCC1 [I-A1-PD5] | + (+ = activity or toxicity at 300 mg/kg) | - (- = no activity or no toxicity at 300 mg/kg) | no or mild toxicity | + (+ = activity or toxicity at 300 mg/kg) | - (- = no activity or no toxicity at 300 mg/kg) | active in MES |  | + (+ = activity or toxicity at 300 mg/kg) | - (- = no activity or no toxicity at 300 mg/kg) | 3/4 |  |  |  |  |  |  | 
